Assay results published in US20130078287A1 (Horizon Pharma USA, Inc., priority 2010, published 2013).
Marks after values point to notes of the source that are not given here.

Legend:
[1] = tested on: subjects who completed REDUCE-1 or REDUCE-2 without ulcer; conditions: human, in vivo, 28 weeks
[2] = tested on: subjects expected to require daily NSAID therapy; assay: REDUCE-2 study: adverse events
Description: Randomization was stratified based on aspirin/anticoagulant therapy and prior ulcer history.
Secondary endpoints were gastric ulcers, duodenal ulcers, and serious GI complications.

[3] = tested on: subjects expected to require daily NSAID therapy; assay: Pooled REDUCE-1 and REDUCE-2: UGI ulcers by subgroup; format: in vivo, human; conditions: for Subjects who developed an upper gastrointestinal ulcer: clinical studies of HZT-501; for Proportion of subjects who developed at least one UGI ulcer: pooled, Week 24 life table
Description: In addition to examining potential risk factors together in a statistical model, the effect of treatment was examined in the combined studies overall and within various subgroups of interest. These subgroups included age category (<65, […]), prior history of UGI ulcer (yes, no), use of low-dose aspirin (LDA) (yes, no), and gender. […] Treatment was the only factor included in the model.

[4] = tested on: subjects expected to require daily NSAID therapy; assay: Integrated REDUCE-1 and REDUCE-2: adverse events
[5] = integrated REDUCE-1 and REDUCE-2

SMILES: CC(C)Cc1ccc(C(C)C(=O)O)cc1 (stereo not shown) [Ibuprofen, 2-(p-isobutylphenyl)propionic acid]
- Viral infection [1]: 2.1 (1) % (n)
- AEs Leading to Discontinuation, Incidence (%) [2]: 7.1%
- AEs by Severity: Life Threatening, Incidence (%) [2]: 0.0%
- AEs by Severity: Moderate, Incidence (%) [2]: 21.7%
- AEs by Severity: Severe, Incidence (%) [2]: 6.6%
- Abdominal Pain Upper, Incidence (%) [2]: 1.9%
- Any GI Event, Incidence (%) [2]: 29.7* %
- Cardiac Disorders, Incidence (%) [2]: 0.5%
- Constipation, Incidence (%) [2]: 3.8%
- Deaths, Incidence % [2]: 0/0.0%
- Diarrhea, Incidence (%) [2]: 4.2%
- Dyspepsia, Incidence (%) [2]: 8.5** %
- General Disorders/Administrative Site Conditions, Incidence (%) [2]: 3.8%
- Hepatobiliary Disorders, Incidence (%) [2]: 0.0%
- Hypertension, Incidence (%) [2]: 1.9%
- Infections/Infestations, Incidence (%) [2]: 19.3%
- Injury, Poisoning, Procedural Complications, Incidence (%) [2]: 3.8%
- Investigations, Incidence (%) [2]: 2.4%
- Musculoskeletal/connective Tissue Disorders, Incidence (%) [2]: 5.2%
- Nausea, Incidence (%) [2]: 5.2%
- Nervous System Disorders, Incidence (%) [2]: 4.7%
- Renal and Urinary Disorders, Incidence (%) [2]: 0.0%
- Respiratory, Thoracic and Mediastinal Disorders, Incidence (%) [2]: 4.7%
- SAEs leading to discontinuation, Incidence % [2]: 2/0.9%
- Subjects with at least one AE, Incidence (%) [2]: 54.7%
- Total SAEs, Incidence % [2]: 4/1.9%
- Withdrawals due to GI, Incidence (%) [2]: 5.2*** %
- Subjects who developed an upper gastrointestinal ulcer ([3]; subjects who used low-dose aspirin): 35%
- Subjects who developed an upper gastrointestinal ulcer ([3]; subjects with a prior history of gastrointestinal ulcer): 24%
- Proportion of subjects who developed at least one UGI ulcer ([3]; Age <65 years): 26.3%
- Proportion of subjects who developed at least one UGI ulcer ([3]; Age ≧65 years): 26.6%
- Proportion of subjects who developed at least one UGI ulcer ([3]; Age ≧65 years, listed as ibuprofen): 27%
- Proportion of subjects who developed at least one UGI ulcer ([3]; Female): 28.3%
- Proportion of subjects who developed at least one UGI ulcer ([3]; Race Other): 13.3%
- AEs Leading to Discontinuation, Incidence (%) [4, 5]: 7.6%
- AEs by Relatedness: Possibly Related, Incidence (%) [4, 5]: 25.0%
- AEs by Relatedness: Probably Not Related, Incidence (%) [4, 5]: 33.7%
- AEs by Severity: Life Threatening, Incidence (%) [4, 5]: 0.4%
- AEs by Severity: Moderate, Incidence (%) [4, 5]: 25.0%
- AEs by Severity: Severe, Incidence (%) [4, 5]: 6.8%
- Subjects with at least one AE, Incidence (%) [4, 5]: 58.7%
- TEAE: Abdominal distension ([4]; integrated, safety population): 1.4 (7) %
- TEAE: Abdominal pain ([4]; integrated, safety population): 1.6 (8) %
- TEAE: Abdominal pain upper ([4]; integrated, safety population): 2.5 (13) %
- TEAE: Abdominal tenderness ([4]; integrated, safety population): 1.0 (5) %
- TEAE: Anaemia ([4]; integrated, safety population): 1.4 (7) %
- TEAE: Arthralgia ([4]; integrated, safety population): 1.8 (9) %
- TEAE: Back pain ([4]; integrated, safety population): 0.8 (4) %
- TEAE: Blood and lymphatic system disorders ([4]; integrated, safety population): 1.8 (9) %
- TEAE: Bronchitis ([4]; integrated, safety population): 1.2 (6) %
- TEAE: Constipation ([4]; integrated, safety population): 4.1 (21) %
- TEAE: Cough ([4]; integrated, safety population): 2.0 (10) %
- TEAE: Diarrhoea ([4]; integrated, safety population): 4.3 (22) %
- TEAE: Dizziness ([4]; integrated, safety population): 1.4 (7) %
- TEAE: Dyspepsia ([4]; integrated, safety population): 8.0 (41) %
- TEAE: Dyspnoea ([4]; integrated, safety population): 1.0 (5) %
- TEAE: Fall ([4]; integrated, safety population): 1.0 (5) %
- TEAE: Fatigue ([4]; integrated, safety population): 1.0 (5) %
- TEAE: Flatulence ([4]; integrated, safety population): 0.4 (2) %
- TEAE: Gastritis ([4]; integrated, safety population): 1.4 (7) %
- TEAE: Gastro-oesophageal reflux disease ([4]; integrated, safety population): 3.1 (16) %
- TEAE: Gastroenteritis viral ([4]; integrated, safety population): 0.8 (4) %
- TEAE: Gastrointestinal disorders ([4]; integrated, safety population): 28.4 (145) %
- TEAE: General disorders and administration site conditions ([4]; integrated, safety population): 4.5 (23) %
- TEAE: Headache ([4]; integrated, safety population): 3.3 (17) %
- TEAE: Hypertension ([4]; integrated, safety population): 2.2 (11) %
- TEAE: Infections and infestations ([4]; integrated, safety population): 20.7 (106) %
- TEAE: Influenza ([4]; integrated, safety population): 1.6 (8) %
- TEAE: Injury, poisoning and procedural complications ([4]; integrated, safety population): 5.1 (26) %
- TEAE: Insomnia ([4]; integrated, safety population): 1.0 (5) %
- TEAE: Muscle spasms ([4]; integrated, safety population): 0.4 (2) %
- TEAE: Musculoskeletal and connective tissue disorders ([4]; integrated, safety population): 6.8 (35) %
- TEAE: Musculoskeletal pain ([4]; integrated, safety population): 0.8 (4) %
- TEAE: Nasopharyngitis ([4]; integrated, safety population): 2.7 (14) %
- TEAE: Nausea ([4]; integrated, safety population): 4.7 (24) %
- TEAE: Nervous system disorders ([4]; integrated, safety population): 6.1 (31) %
- TEAE: Oedema peripheral ([4]; integrated, safety population): 1.8 (9) %
- TEAE: Pain in extremity ([4]; integrated, safety population): 0.8 (4) %
- TEAE: Pharyngolaryngeal pain ([4]; integrated, safety population): 1.2 (6) %
- TEAE: Psychiatric disorders ([4]; integrated, safety population): 3.1 (16) %
- TEAE: Rash ([4]; integrated, safety population): 1.0 (5) %
- TEAE: Respiratory, thoracic and mediastinal disorders ([4]; integrated, safety population): 7.0 (36) %
- TEAE: Sinus congestion ([4]; integrated, safety population): 1.4 (7) %
- TEAE: Sinusitis ([4]; integrated, safety population): 2.7 (14) %
- TEAE: Skin and subcutaneous tissue disorders ([4]; integrated, safety population): 3.5 (18) %
- TEAE: Stomach discomfort ([4]; integrated, safety population): 1.6 (8) %
- TEAE: Upper respiratory tract infection ([4]; integrated, safety population): 4.1 (21) %
- TEAE: Urinary tract infection ([4]; integrated, safety population): 2.3 (12) %
- TEAE: Vascular disorders ([4]; integrated, safety population): 2.7 (14) %
- TEAE: Vomiting ([4]; integrated, safety population): 1.8 (9) %
- Total Subjects With at Least One TEAE ([4]; integrated, safety population): 58.7 (300) %
